Assay results as given in patent US8765961B2, “Near infrared fluorescent imaging agent” (FUJIFILM Corporation, priority 2009, dated 2014).

Target: T1, albumin (Bos taurus, UniProt P02769)
T1 construct: The test substance was dissolved to 5 μg/mL in calf serum; from tissue; host or cells: calf serum
Experiment: Serum protein binding rate test by ultracentrifugation, albumin fraction
Format: in vitro ADME
Details: 5 μg/mL in calf serum, 37° C., density gradient centrifugation, HPLC
Experimental: The test substance was dissolved to 5 μg/mL in calf serum, vibrated for 20 minutes at 37° C., and subjected to density gradient centrifugation (1,000,000×g, 24 h) using NaBr. Following the centrifugation, the dye concentrations in the albumin fraction, lipoprotein fraction, and the remaining fractions were quantified by HPLC.

T1 sequence (P02769 25-607): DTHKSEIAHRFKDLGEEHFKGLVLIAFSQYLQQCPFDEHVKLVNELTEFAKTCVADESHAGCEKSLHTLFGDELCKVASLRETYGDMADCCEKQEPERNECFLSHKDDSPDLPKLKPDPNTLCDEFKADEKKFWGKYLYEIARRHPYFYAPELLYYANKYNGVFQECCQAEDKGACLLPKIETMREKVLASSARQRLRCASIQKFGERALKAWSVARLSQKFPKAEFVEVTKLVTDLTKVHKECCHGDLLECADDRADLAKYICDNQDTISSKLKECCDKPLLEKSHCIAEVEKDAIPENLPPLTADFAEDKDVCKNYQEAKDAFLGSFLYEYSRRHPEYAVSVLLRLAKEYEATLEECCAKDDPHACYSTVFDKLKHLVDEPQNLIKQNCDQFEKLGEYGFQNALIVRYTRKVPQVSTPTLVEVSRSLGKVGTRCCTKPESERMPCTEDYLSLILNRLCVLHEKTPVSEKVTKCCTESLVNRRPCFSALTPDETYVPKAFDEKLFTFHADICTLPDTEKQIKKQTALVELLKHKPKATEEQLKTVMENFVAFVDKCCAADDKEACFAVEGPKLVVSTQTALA

## CC1(C)C(/C=C/C=C/C=C/C=C2\N(CCCCS(=O)(=O)O)c3ccc4ccccc4c3C2(C)C)=[N+](CCCCS(=O)(=O)[O-])c2ccc3ccccc3c21 [ICG, indocyanine green]
  Protein binding rate (%) Albumin: 18%
